Test results from patent publication EP0558960A1, “Medicament for the prophylaxis and treatment of the neurologic and psychiatric disorders caused by alcohol abuse, which contains thiamine, folic acid and cobalamine” (priority 1992, dated 1993).

Columns and labels:
[1] = Thiamine levels in plasma and erythrocytes after oral administration of the medicament with Benfotiamin; format: in vivo; settings: comparator not printed in b22 (Thiaminhydrochlorid)
[2] = Availability and passage of the blood-brain barrier, Benfotiamin compared with Thiaminhydrochlorid; format: in vivo
[3] = in contrast to Thiaminhydrochlorid

CC(=C(CCOP(=O)(O)O)SC(=O)c1ccccc1)N(C=O)Cc1cnc(C)nc1N [Benfotiamin]
höhere Anstiege von Thiamin und Thiamindiphosphat-coenzymen in den Erythrozyten [1]: ca. 130 -fach | höhere Plasmaspiegel an Thiamin [1]: 10 -fach | Verfügbarkeit ([2]; compared with Thiaminhydrochlorid): besser verfügbar als Thiaminhydrochlorid | Blut-Hirn-Schranke [2, 3]: passiert | Liquor cerebrospinalis [2, 3]: anreichert
